# How the values were obtained:
# [1] = system: Mast/stem cell growth factor receptor Kit (Homo sapiens), P10721 [V559D,V654A]; assay: Inhibition of KIT V559D/V654A mutant (unknown origin) at 1 uM by Ambit Kinomescan binding assay relative to control; values are per cent of control
# [2] = biological target: Ribosomal protein S6 kinase alpha-1 (Homo sapiens) (UniProt Q15418); assay: Inhibition of RSK1 domain2 Lys2 labeling site in human A-375 cells at 0.05 uM by KiNativ Profiling analysis relative to control; assay type: cell-based
# Chain of Ribosomal protein S6 kinase alpha-1 (Homo sapiens) (Q15418 whole entry, the tested form may be a part): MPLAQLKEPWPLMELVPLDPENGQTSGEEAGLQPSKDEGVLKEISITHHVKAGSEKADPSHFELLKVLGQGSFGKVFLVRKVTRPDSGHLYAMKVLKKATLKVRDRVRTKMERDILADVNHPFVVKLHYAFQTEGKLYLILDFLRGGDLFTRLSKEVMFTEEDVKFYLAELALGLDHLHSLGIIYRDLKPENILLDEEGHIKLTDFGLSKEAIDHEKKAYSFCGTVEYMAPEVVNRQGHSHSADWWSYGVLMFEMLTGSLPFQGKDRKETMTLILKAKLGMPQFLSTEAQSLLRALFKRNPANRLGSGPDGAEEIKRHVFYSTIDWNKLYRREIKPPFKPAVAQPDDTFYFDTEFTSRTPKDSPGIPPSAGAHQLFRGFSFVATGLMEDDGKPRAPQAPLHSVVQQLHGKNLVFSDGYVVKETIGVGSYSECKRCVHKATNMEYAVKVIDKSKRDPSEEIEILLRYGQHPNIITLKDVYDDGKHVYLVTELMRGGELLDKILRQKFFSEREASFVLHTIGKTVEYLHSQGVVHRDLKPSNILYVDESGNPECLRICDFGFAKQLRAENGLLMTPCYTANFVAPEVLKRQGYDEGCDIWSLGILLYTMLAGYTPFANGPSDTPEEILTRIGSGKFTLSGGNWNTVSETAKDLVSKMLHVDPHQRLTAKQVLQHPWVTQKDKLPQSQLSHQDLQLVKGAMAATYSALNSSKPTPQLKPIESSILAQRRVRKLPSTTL
# [3] = biological target: Ankyrin repeat and protein kinase domain-containing protein 1 (Homo sapiens) (UniProt Q8NFD2); assay: Inhibition of ANKK1 (unknown origin) at 1 uM by Ambit Kinomescan binding assay relative to control
# Chain of Ankyrin repeat and protein kinase domain-containing protein 1 (Homo sapiens) (Q8NFD2 whole entry, the tested form may be a part): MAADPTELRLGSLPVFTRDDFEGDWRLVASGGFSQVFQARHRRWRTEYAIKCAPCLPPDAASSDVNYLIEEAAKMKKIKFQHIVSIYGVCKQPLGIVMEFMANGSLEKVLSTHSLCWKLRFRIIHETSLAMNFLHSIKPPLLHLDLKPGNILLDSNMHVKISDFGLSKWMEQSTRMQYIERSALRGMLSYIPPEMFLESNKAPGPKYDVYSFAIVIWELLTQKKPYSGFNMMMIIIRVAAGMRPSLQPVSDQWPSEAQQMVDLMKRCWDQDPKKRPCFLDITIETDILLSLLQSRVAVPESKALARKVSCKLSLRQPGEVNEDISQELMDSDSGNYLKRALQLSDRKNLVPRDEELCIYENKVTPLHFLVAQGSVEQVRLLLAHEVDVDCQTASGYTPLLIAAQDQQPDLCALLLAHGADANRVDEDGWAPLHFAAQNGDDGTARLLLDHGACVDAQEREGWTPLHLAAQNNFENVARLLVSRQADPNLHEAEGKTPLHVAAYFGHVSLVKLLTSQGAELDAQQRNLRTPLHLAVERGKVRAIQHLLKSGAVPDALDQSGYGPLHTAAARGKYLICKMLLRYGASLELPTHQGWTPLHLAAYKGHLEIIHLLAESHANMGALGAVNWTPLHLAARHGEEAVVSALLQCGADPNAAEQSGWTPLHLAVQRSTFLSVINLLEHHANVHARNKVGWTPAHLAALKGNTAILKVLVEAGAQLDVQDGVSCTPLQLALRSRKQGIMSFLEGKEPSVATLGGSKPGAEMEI
# [4] = biological target: RAF proto-oncogene serine/threonine-protein kinase (Homo sapiens, UniProt P04049); assay: Inhibition of RAF1 (unknown origin) Lys2 labeling site by KiNativ Profiling analysis
# Chain of RAF proto-oncogene serine/threonine-protein kinase (P04049 whole entry): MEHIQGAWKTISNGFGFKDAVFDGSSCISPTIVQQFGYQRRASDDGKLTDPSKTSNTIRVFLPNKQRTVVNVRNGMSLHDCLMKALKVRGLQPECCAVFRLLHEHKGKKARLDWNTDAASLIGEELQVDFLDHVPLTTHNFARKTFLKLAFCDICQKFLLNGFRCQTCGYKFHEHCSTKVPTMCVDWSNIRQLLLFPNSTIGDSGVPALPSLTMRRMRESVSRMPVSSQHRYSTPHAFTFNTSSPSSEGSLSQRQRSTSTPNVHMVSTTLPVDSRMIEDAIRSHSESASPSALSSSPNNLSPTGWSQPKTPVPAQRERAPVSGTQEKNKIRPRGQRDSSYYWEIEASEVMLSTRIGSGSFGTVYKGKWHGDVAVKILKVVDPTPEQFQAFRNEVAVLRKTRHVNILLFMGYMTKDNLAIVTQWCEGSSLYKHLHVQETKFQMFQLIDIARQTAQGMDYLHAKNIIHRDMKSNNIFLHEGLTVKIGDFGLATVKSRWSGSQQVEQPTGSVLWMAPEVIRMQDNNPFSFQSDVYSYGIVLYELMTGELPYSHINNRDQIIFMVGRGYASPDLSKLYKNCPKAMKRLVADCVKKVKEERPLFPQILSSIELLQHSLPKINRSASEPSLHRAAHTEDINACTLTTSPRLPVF
# [5] = biological target: NT-3 growth factor receptor (Homo sapiens) (UniProt Q16288); assay: Inhibition of TRKC (unknown origin) at 1 uM by Ambit Kinomescan binding assay relative to control
# [6] = biological target: Rho-associated protein kinase 2 (Homo sapiens) (UniProt O75116); assay: Inhibition of ROCK2 Lys2 labeling site in human A-375 cells at 0.05 uM by KiNativ Profiling analysis relative to control; assay type: cell-based
# [7] = biological target: Mitogen-activated protein kinase kinase kinase kinase 4 (Homo sapiens, UniProt O95819); assay: Inhibition of ZC1 Lys2 labeling site in human A-375 cells at 5 uM by KiNativ Profiling analysis relative to control; assay type: cell-based
# [8] = biological target: T1, Aurora kinase A (Homo sapiens) (UniProt O14965); assay: Inhibition of AurA K2 labeling site harbouring DIKPENLLLGSAGELK in human Huh-7 cells at 10 uM by KiNativ Profiling analysis relative to control; assay type: cell-based
# T1 sequence (whole entry): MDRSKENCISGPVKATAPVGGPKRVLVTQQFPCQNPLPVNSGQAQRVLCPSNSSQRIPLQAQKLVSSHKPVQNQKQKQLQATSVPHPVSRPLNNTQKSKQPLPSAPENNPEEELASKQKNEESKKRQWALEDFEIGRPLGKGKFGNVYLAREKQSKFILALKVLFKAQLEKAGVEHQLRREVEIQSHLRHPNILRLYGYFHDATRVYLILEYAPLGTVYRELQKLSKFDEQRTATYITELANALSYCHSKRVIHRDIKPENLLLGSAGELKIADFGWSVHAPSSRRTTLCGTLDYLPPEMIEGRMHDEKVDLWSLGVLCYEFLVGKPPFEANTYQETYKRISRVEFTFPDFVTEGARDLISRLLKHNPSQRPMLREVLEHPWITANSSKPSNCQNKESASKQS
# [9] = biological target: Vascular endothelial growth factor receptor 2 (Homo sapiens) (UniProt P35968); assay: Inhibition of VEGFR2 (unknown origin) at 10 uM by Ambit Kinomescan binding assay relative to control; values are per cent of control
# Chain of Vascular endothelial growth factor receptor 2 (Homo sapiens) (P35968 whole entry): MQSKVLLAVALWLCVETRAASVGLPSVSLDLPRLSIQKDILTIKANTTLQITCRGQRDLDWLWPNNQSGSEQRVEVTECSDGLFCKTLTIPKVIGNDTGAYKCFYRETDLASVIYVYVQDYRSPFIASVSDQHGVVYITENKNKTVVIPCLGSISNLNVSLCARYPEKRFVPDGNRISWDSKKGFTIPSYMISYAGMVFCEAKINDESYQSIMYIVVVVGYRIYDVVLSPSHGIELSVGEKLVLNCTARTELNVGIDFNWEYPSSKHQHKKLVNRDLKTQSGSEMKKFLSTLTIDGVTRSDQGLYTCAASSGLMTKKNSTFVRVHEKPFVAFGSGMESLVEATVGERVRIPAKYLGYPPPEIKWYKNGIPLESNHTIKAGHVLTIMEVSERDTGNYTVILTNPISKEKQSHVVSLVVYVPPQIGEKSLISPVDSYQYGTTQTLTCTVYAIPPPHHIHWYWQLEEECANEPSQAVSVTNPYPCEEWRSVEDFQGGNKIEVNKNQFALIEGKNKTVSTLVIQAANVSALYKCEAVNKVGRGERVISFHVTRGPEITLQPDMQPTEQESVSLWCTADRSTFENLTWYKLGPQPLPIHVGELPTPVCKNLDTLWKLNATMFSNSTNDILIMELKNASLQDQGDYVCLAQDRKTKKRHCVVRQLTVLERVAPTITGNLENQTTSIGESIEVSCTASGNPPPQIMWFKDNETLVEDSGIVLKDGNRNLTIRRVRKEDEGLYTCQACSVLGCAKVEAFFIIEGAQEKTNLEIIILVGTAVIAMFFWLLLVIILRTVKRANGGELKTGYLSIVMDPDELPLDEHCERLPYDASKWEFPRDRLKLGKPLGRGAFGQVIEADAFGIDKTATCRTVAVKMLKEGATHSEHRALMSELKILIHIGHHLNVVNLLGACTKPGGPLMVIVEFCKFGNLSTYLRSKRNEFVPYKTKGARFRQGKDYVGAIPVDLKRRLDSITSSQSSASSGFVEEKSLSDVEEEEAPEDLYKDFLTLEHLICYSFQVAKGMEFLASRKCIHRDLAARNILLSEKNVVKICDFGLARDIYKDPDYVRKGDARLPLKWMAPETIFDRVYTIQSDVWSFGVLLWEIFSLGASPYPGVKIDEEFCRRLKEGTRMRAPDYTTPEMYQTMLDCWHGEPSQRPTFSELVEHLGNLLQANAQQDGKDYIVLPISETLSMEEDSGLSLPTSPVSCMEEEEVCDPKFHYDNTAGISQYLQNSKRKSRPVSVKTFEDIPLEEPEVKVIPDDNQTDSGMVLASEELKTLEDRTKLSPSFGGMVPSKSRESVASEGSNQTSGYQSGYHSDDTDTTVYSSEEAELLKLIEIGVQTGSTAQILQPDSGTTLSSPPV
# [10] = Inhibition of KHS2 Lys1 labeling site in human Huh-7 cells at 1 uM by KiNativ Profiling analysis relative to control; details: condition cancer
# [11] = biological target: T2, Serine/threonine-protein kinase TBK1 (Homo sapiens) (UniProt Q9UHD2); assay: Inhibition of TBK1 Lys1 labeling site in human Huh-7 cells at 1 uM by KiNativ Profiling analysis relative to control; assay type: cell-based
# T2 sequence (whole entry): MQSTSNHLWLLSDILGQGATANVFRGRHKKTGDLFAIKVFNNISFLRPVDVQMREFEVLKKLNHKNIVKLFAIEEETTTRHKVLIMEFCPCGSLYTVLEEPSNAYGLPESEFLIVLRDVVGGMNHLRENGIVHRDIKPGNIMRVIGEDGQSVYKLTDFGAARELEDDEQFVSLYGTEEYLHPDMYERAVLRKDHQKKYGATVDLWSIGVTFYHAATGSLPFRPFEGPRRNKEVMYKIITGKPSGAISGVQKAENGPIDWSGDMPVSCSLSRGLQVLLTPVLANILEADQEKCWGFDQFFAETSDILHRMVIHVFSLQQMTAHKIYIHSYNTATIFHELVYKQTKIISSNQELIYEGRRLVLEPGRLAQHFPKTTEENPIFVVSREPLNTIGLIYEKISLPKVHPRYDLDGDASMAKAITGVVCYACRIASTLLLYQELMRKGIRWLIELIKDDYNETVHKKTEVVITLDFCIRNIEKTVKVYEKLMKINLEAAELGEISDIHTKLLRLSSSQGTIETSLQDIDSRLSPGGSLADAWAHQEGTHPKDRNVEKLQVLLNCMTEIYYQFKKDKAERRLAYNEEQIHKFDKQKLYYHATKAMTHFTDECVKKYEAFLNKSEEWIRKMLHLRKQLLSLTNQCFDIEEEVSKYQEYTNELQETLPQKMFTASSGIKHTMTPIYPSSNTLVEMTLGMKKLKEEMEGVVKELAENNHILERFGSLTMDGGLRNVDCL
# Chain of Mast/stem cell growth factor receptor Kit (Homo sapiens), P10721 [V559D,V654A] (P10721 whole entry V559D/V654A, the tested form may be a part): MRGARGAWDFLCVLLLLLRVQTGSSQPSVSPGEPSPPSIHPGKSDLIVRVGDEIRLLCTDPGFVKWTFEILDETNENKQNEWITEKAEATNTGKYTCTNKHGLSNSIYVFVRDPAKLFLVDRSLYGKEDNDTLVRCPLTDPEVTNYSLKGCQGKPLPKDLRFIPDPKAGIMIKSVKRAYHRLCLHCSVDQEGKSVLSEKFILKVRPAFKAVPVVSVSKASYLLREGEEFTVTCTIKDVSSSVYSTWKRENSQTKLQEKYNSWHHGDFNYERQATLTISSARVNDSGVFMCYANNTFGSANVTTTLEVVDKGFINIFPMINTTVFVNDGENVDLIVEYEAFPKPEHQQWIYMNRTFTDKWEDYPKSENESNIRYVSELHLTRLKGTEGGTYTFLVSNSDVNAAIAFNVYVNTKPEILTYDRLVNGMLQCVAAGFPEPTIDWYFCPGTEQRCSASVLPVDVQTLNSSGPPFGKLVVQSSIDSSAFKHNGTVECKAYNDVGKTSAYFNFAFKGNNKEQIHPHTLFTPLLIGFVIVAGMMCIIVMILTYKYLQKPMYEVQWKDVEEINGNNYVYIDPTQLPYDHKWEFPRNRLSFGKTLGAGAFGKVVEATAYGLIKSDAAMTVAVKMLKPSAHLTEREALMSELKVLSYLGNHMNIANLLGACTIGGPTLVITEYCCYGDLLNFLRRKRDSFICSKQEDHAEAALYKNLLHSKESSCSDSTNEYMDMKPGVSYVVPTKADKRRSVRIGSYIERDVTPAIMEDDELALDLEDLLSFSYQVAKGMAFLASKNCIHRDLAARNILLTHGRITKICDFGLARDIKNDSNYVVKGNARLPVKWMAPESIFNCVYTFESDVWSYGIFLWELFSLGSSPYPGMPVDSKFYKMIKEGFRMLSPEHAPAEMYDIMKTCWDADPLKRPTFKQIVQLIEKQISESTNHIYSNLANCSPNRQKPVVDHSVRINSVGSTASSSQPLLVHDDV
smiles,measurement,setting,value
CCN1CCN(Cc2ccc(NC(=O)c3ccc(C)c(/C=C/c4cnc5[nH]ccc5c4OC)c3)cc2C(F)(F)F)CC1,residual activity,[1],7.1%
same,inhibition,[2],4%
same,inhibition,[3],6%
same,IC50,[4],3.31 µM
same,inhibition,[5],47%
CCN1CCN(Cc2ccc(NC(=O)c3ccc(C)c(Oc4ccnc5[nH]ccc45)c3)cc2C(F)(F)F)CC1,inhibition,[6],6%
same,inhibition,[7],92.7%
same,inhibition,[8],9.4%
same,residual activity,[9],1.5%
CNc1cc(Oc2cc(C(=O)Nc3cc(N4CCN(C)CC4)cc(C(F)(F)F)c3)ccc2C)ncn1,inhibition at 1 µM,[10],5.3%
same,inhibition,[11],30.9%
